According to US6551999B1, “Angiogenesis inhibitor” (Senju Pharmaceutical Co., Ltd., priority 1995, dated 2003):
Ends that are not written are not given here.

Columns and labels:
[1] = tested on: angiogenesis in cornea of guinea pig; experiment: Angiogenesis in cornea of guinea pig by transplantation of bFGF-containing pellet; assay type: in vivo; conditions: 9 days posttransplantation; for Observation of cornea with a slit lamp: appearance of newly formed blood vessels compared to the control group: test pellet (27 mer calpastatin peptide 0.03 and 0.1 μmole, leupeptin 0.1 μmole) together with bFGF (500 ng) pellet; for Wet weight of cornea compared to the control group / Amount of albumin in cornea compared to the control group: test pellet together with bFGF pellet; for Amount of albumin in cornea compared to the control group: SDS-PAGE image analysis
Procedure: (1) Method for Preparing Pellets for Transplantation
A solution (5 μl) of 8% ethylene vinyl acetate copolymer (EVA) in dichloromethane was dropped on a plate made of Tefron, air-dried, and 0.0167 w/v % bFGF (3 μl) was dropped thereon and air-dried. After drying, the obtained product was rounded into a small rod to give a bFGF (500 ng)-containing pellet.
Using a test solution instead of 0.0167 w/v % bFGF, a test solution-containing pellet was prepared in the same manner as above. The test solution-containing pellets were prepared to contain 27 mer calpastatin peptide (0.03 μmole and 0.1 μmule/pellet, Sigma) and leupeptin (0.1 μmole/pellet, PEPTIDE […], INC.).
As a control, a pellet made of EVA alone was prepared and used as a vehicle pellet.
(2) Transplantation of Pellet into Cornea of Guinea Pig
The procedure followed the method of M. Kusaka et al. [Biochem. Biophys. Res. Comm., vol. 174, pp. 1070-1076 (1991)]. That is, male guinea pigs weighing 300-400 g were anesthetized with a 1:1 mixture of Ketalar 50 (ketamin hydrochloride, Sankyo Company, Limited) and Celactal (xylazine hydrochloride, Bayer, Ltd.). A pocket was formed in the intercellular layer of corneal stroma layer of both eyes from corneal limbus to the center of cornea, using a 0.5 mm width ophthalmic spatula. A test solution-containing pellet was inserted into the pocked thus formed, and a bFGF-containing pellet was inserted in adjacency thereto. For prevention of infection, ofloxacin eye ointment [Tarivid eye ointment (ofloxacin 0.3%, manufactured by Santen Pharmaceutical Co., Ltd.) was instilled once immediately after insertion of the pellets. Thereafter, 0.3% lomefloxacin (lomeflon ophthalmic otologic solution, manufactured by Senju Pharmaceutical Co., Ltd.) was instilled once a day for 5 days.
(3) Evaluation of the Effects of Cysteine Protease Inhibitor
The blood vessel newly formed in cornea which is an avascular tissue had high permeability, and the wet weight and plasma content were expected to elevate due to incurrent of plasma components as a result of high permeability. At 9 days posttransplantation of pellet, guinea pigs were euthanized and cornea was collected. The obtained cornea was weighed (wet weight). Then, it was homogenized, and subjected to centrifugation. The obtained water soluble protein was separated by SDS polyacrylamide gel electrophoresis. After electrophoresis, the gel was stained with Coomassie Brilliant Blue. By image analysis (NIH Image 1.31), albumin which is one of the major proteins in plasma was quantitatively assayed. As the standard substance, guinea pig serum albumin was used.

cathepsin L = biological target: T1, cathepsin L (Homo sapiens, UniProt P07711); experiment: Assay of cathepsin L-inhibitory activity (Z-Phe-Arg-MCA); assay type: biochemical; conditions: 20 minutes at 30° C., pH 5.5
T1 construct: purchased Cosmo Bio
T1 sequence (P07711 114-333, species assumed): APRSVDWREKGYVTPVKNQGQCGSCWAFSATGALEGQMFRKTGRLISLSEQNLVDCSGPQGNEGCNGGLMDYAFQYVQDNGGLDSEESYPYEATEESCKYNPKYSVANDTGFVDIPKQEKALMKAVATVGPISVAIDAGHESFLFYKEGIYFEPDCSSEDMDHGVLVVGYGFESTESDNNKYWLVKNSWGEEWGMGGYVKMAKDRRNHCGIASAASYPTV
Procedure: The activity of cathepsin L (Cosmo Bio), a cysteine protease, was assayed by the method described in the literature [Methods in Enzymology, 80, 535-561, 1981]. Thus, to a solution containing 85 mM acetate buffer (pH 5.5), 2 mM dithiothreitol, 1 mM EDTA, 2 μg cathepsin L, and a varying concentration of the test compound was added 50 μl of 20 μM carbobenzoxy-L-phenylalanyl-L-arginine-4-methylcoumaryl-7-amide (Z-Phe-Arg-MCA) to initiate the reaction at the final liquid volume of 200 μl. After 20 minutes of reaction at 30° C., 20 μl of 1 M Tris-HCl (pH 8.0) was added so as to stop the reaction. The amount of liberated 4-methyl-7-aminocoumarin was determined with a fluorospectrometer at an excitation wavelength of 360 nm and a fluorescent emission wave length of 450 nm. Using the value found without addition of the test drug as control and the value found without addition of the enzyme as blank, IC50 was determined in the same manner as above.

papain = biological target: T2, papain (Carica papaya, UniProt P00784); experiment: Assay of papain-inhibitory activity (casein substrate); assay type: biochemical; conditions: 60 minutes at 30° C., pH 8.0
T2 sequence (P00784 134-345): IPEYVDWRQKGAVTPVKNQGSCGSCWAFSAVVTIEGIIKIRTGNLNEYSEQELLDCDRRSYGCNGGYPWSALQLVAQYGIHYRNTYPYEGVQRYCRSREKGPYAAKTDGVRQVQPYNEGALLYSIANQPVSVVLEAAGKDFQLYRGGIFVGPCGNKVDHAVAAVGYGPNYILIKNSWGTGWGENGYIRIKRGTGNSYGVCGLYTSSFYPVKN
Procedure: (§1) The activity of papain which is a cysteine protease and of trypsin (Sigma) which is a serine protease was assayed in accordance with the method described in the literature [Anal. Biochem., 208, 387-392, 1993]. Thus, to a solution containing 0.5 mg/ml casein, 50 mM Tris-HCl (pH 8.0), 20 mM dithiothreitol, and 0.2 mM EDTA was added 2.5 μl of dimethyl sulfoxide containing a varying concentration of the test drug as well as 0.03 unit of papain or trypsin to initiate the reaction. The final liquid volume was adjusted to 250 μl. After 60 minutes of reaction at 30° C., 100 μl of the reaction mixture was transferred to another vessel and following addition of 50 μl of purified water and 100 μl of 50% Coumassie brilliant blue solution, the mixture was allowed to stand at room temperature for 15 minutes. The absorbance of the mixture was then measured at 595 nm. Using the value found similarly by adding 2.5 μl of dimethyl sulfoxide not containing the test drug as control and the value found without addition of the enzyme as blank, IC50 was determined in the same manner as above.

trypsin = biological target: T3, trypsin (UniProt P00760); experiment: Assay of trypsin-inhibitory activity (casein substrate); assay type: biochemical; conditions: read-out: Trypsin 50% Inhibitory concentration (IC50); 60 minutes at 30° C., pH 8.0
T3 sequence (P00760 1-246): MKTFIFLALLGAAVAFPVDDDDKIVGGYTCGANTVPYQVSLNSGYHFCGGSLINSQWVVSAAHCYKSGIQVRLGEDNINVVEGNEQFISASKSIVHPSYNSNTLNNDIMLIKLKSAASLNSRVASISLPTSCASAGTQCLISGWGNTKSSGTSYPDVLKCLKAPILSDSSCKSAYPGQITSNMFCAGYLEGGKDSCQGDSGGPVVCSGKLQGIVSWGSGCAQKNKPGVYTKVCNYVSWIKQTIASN
Procedure: as §1

μ-calpain = biological target: T4, μ-calpain (Homo sapiens, UniProt P07384); experiment: μ-Calpain-inhibitory activity (casein substrate); assay type: biochemical; conditions: 60 minutes at 30° C., pH 7.4, 4 mM calcium chloride
T4 construct: purchased Nakalai Tesque
T4 sequence (P07384 1-714): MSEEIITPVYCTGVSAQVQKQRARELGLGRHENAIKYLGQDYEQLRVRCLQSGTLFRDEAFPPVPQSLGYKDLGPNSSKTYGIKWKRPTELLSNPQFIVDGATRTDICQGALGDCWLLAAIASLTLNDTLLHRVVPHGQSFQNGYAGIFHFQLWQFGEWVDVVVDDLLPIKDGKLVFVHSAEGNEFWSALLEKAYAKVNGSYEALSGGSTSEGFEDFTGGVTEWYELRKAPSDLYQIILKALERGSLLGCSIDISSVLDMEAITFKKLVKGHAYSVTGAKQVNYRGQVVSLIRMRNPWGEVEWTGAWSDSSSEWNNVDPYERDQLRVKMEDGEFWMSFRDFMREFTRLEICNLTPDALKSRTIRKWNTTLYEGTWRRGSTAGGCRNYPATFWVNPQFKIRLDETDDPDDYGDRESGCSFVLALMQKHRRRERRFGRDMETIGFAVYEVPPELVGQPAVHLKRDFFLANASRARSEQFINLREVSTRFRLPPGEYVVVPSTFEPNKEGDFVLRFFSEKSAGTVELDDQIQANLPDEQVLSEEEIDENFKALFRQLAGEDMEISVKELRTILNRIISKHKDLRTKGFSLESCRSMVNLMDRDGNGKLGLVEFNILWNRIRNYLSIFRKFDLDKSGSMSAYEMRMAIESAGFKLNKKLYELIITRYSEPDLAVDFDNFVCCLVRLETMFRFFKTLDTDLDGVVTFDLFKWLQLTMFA
T4 sequence (P04632 1-268 partner): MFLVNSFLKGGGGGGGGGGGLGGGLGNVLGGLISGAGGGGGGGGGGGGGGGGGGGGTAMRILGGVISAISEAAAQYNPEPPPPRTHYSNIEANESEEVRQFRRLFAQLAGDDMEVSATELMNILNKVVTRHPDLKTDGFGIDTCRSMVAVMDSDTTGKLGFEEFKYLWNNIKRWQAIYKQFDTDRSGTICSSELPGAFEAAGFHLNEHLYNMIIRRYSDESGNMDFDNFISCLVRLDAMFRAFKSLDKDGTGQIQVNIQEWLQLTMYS
Procedure: Thus, to a solution containing 0.5 mg/ml casein, 50 mM Tris-HCl (pH 7.4), 20 mM dithiothreitol, and 4 mM calcium chloride was added 2.5 μl of a dimethyl sulfoxide solution containing a varying concentration of the test drug as well as 0.03 unit of μcalpain to initiate the reaction. The final liquid volume was 250 μl. After 60 minutes of reaction at 30° C., 100 μl of the reaction mixture was transferred to another vessel, to which 50 μl of purified water and 100 μl of 50% Coumassie brilliant blue solution were added. […] As a control, 2.5 μl of dimethyl sulfoxide not containing the test drug was added and the mixture was treated in the same manner as above. […] Similarly, the value found by adding 0.2 mM EDTA in lieu of 4 mM aqueous calcium chloride solution was used as the blank value. […] [formula]

Row | IC50 (μ-calpain) [µM] | Compound | IC50 (cathepsin L) [µM] | IC50 (papain) [µM] | IC50 (trypsin) [µM] | also measured
1 | 0.84 | CCC(C)[C@H](NC(=O)[C@H]1O[C@@H]1C(=O)O)C(=O)N1CCN(c2ccccc2Cl)CC1 (stereo partly shown) [Compound 24, (2s,3s)-3-[[[[(1s)-1-[[4-(2-chlorophenyl)-1-piperazinyl]carbonyl]-2-methyl]butyl]amino]carbonyl]oxiranecarboxylic acid] | 0.009 | 0.047 | > 3000 | 
2 | 0.013 | CC(C)[C@H](NS(=O)(=O)c1ccc(Cl)cc1)C(=O)N[C@H](C=O)Cc1c[nH]c2ccccc12 [Compound 48, N-(4-chlorophenylsulfonyl)-L-valyl-L-tryptophanal] |  |  |  | 
3 | 0.031 | CC(C)C[C@@H](C=O)NC(=O)[C@@H](NS(=O)(=O)c1ccc(Cl)cc1)C(C)C [Compound 36, N-(4-chlorophenylsulfonyl)-L-valyl-L-leucinal] |  |  |  | 
4 | 5.1 | C[C@H](NC(=O)[C@H]1O[C@@H]1C(=O)O)C(=O)N1CCN(c2ccccc2Cl)CC1 [Compound 23, (2s,3s)-3-[[[(1s)-1-[[4-(2-chlorophenyl)-1-piperazinyl]carbonyl]ethyl]amino]carbonyl]oxiranecarboxylic acid] |  |  |  | 
5 | 1.1 | CC(C)C[C@H](NC(=O)[C@H]1O[C@@H]1C(=O)O)C(=O)N1CCN(S(=O)(=O)N(C)C)CC1 [Compound 15, (2s,3s)-3-[[[[(1s)-1-[(4-dimethylsulfamoyl-1-piperazinyl)carbonyl]-3-methyl]butyl]amino]carbonyl]oxiranecarboxylic acid] |  |  |  | 
6 | 2400 | O=C(O)[C@H]1O[C@@H]1C(=O)N1CCC[C@H]1C(=O)N1CCN(c2ccccc2Cl)CC1 [Compound 27, (2s,3s)-3-[[(2s)-2-[[4-(2-chloro-phenyl)-1-piperazinyl]carbonyl]-1-pyrrolidinyl]carbonyl]oxiranecarboxylic acid] |  |  |  | 
7 | 0.03 | CC(C)[C@H](NS(=O)(=O)c1ccc(F)cc1)C(=O)NC(C=O)CC1CCCCC1 (stereo partly drawn) [Compound 52, N-(4-fluorophenylsulfonyl)-L-valyl-L-cyclohexylalaninal] |  |  |  | 

Continued, compound first:

Row | Compound | IC50 (μ-calpain) [µM] | IC50 (cathepsin L) [µM] | IC50 (papain) [µM] | IC50 (trypsin) [µM] | also measured
8 | DPMSSTYIEELGKREVTIPPKYRELLA [27 mer calpastatin peptide, from Sigma] |  |  |  |  | Observation of cornea with a slit lamp: appearance of newly formed blood vessels compared to the control group [1]: the degree of appearance was mild; Wet weight of cornea compared to the control group [1]: suppressed increase in the wet weight of cornea; Amount of albumin in cornea compared to the control group [1]: suppressed increase in the amount of albumin in cornea
9 | O=C(O)[C@H]1O[C@@H]1C(=O)N[C@@H](Cc1ccccc1)C(=O)N1CCN(c2ccc(F)cc2)CC1 [Compound 11] | 2.9 | 0.012 | 0.11 | > 3000 | 
10 | CC(C)C[C@H](NC(=O)[C@H]1O[C@@H]1C(=O)O)C(=O)N1CCN(c2ccc(F)cc2)CC1 [Compound 13] | 0.81 | 0.029 | 0.079 | > 3000 | 
11 | Cc1ccc(S(=O)(=O)N2CCN(C(=O)[C@H](CC(C)C)NC(=O)[C@H]3O[C@@H]3C(=O)O)CC2)cc1 [Compound 16, (2s,3s)-3-[[[[(1s)-1-[[4-(4-methylphenylsulfonyl)-1-piperazinyl]carbonyl]-3-methyl]butyl]amino]carbonyl]oxiranecarboxylic acid] | 0.64 | 0.082 | 0.21 | > 3000 | 
12 | CC(=O)N[C@@H](CC(C)C)C(=O)N[C@@H](CC(C)C)C(=O)N[C@H](C=O)CCCNC(=N)N [leupeptin] |  |  |  |  | Observation of cornea with a slit lamp: appearance of newly formed blood vessels compared to the control group [1]: the degree of appearance was mild; Wet weight of cornea compared to the control group [1]: suppressed increase in the wet weight of cornea; Amount of albumin in cornea compared to the control group [1]: suppressed increase in the amount of albumin in cornea
